Values joined by “and” are separate entries in the source; they are usually repeats but may differ in a detail not shown here. Equal entries are not always repeated. “Also recorded” adds a separate entry of the source. Where two headings read alike, the source gives them in different places.

The source of these data is article PMC6905088 (Biochemical pharmacology, 2019).

For one data set, the system named is CYP2C9 and 3A4. Nature of the data set: In vitro to in vivo scaling of P450 kinetics, CYP2C9 and 3A4 combined. Particulars: scaled to average protein concentrations in human liver microsomes. For orientation: Liver microsomes are vesicles of endoplasmic reticulum, rich in cytochrome P450 enzymes.
A further data set has as its system CYP2C19. Particulars: substrate terbinafine, ref Davis et al. (2019); cited from earlier work.
The conditions of data set [1]: ref Vago et al., 1994, Kovarik et al., 1995; cited from earlier work.
Another data set deals with T1, CYP2A6 (Homo sapiens, UniProt P11509).
T1 sequence (P11509 1-494): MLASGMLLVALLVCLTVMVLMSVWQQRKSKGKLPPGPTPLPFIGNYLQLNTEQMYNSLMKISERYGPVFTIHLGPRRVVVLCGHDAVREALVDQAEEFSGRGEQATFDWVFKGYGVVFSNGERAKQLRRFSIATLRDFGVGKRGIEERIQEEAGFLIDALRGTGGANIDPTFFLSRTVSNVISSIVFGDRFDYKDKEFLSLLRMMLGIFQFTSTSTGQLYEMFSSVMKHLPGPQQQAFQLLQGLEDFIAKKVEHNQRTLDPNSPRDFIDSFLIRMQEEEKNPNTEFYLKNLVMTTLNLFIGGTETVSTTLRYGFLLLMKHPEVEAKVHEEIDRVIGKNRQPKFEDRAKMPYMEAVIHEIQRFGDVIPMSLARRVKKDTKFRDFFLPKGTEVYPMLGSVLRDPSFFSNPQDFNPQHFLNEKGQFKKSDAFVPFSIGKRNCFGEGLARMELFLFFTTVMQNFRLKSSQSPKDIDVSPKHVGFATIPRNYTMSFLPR
Nature of the data set: Recombinant isozyme kinetic assay. It is filed as in vitro ADME.

Another data set addresses CYP2D6 (Homo sapiens, UniProt P10635). Nature of the data set: Recombinant isozyme kinetic assay. Particulars: Pathway 1 Step 1, substrate terbinafine.
For a further data set, the target named is T2, CYP2B6 (Homo sapiens, UniProt P20813).
T2 sequence (P20813 1-491): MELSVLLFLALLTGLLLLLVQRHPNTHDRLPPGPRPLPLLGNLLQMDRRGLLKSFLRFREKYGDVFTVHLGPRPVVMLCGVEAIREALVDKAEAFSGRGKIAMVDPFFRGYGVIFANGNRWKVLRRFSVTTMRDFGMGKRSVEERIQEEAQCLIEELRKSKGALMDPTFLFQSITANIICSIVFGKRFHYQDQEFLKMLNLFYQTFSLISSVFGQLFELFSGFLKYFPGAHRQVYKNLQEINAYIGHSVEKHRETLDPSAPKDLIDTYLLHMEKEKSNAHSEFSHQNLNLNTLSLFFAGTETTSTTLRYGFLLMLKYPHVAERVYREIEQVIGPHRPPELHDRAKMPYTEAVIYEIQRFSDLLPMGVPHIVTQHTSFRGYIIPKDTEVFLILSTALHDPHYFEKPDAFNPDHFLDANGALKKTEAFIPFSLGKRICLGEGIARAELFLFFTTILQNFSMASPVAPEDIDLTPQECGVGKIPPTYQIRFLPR
Nature of the data set: Recombinant isozyme kinetic assay.

For a further data set, the target named is T3, CYP2C8 (Homo sapiens, UniProt P10632).
T3 sequence (P10632 1-490): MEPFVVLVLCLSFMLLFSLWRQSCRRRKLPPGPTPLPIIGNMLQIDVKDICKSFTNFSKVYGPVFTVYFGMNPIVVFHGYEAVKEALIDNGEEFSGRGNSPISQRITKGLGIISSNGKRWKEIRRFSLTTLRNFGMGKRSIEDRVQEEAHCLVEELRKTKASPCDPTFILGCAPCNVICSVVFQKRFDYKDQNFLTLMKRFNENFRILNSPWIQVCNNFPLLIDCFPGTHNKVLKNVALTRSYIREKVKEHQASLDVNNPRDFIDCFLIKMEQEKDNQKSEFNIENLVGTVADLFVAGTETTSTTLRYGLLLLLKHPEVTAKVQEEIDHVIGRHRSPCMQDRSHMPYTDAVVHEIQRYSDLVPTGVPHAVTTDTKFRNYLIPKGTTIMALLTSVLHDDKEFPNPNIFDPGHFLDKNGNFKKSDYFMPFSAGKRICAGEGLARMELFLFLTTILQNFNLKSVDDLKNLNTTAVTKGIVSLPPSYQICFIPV
The experiment in a line: Recombinant isozyme kinetic assay. Particulars: substrate terbinafine.

In another data set the target is CYP2E1 (Homo sapiens, UniProt P05181). Nature of the data set: Recombinant isozyme kinetic experiments, CYP2E1. The data set is classed as in vitro ADME.
The target in another data set is CYP2C9 (Homo sapiens, UniProt P11712). Nature of the data set: Recombinant isozyme kinetic assay. Particulars: CYP2C9; substrate terbinafine.
In another data set the test system is CYP3A4. Particulars: substrate terbinafine, ref Davis et al. (2019); cited from earlier work.
The conditions of data set [2]: ref Terbianfine Product Monograph, Canada, 1995; cited from earlier work.
Substrate in data set [3]: CN(C/C=C/C#CC(C)(C)C)Cc1cccc2ccccc12
Substrate in data set [4]: CN(C/C=C/C#CC(C)(C)C)Cc1cccc2ccccc12
The experiment in a line: cells, lysate or membranes named. Particulars: substrate terbinafine, pH 7.4, 37.0 °C.

Where [5] appears, read: other: CYP2C9, Pathway 2 Step 2.1.
The mark [6] stands for this setting: other: CYP2C8, Pathway 2 Step 2.1.
The mark [7] stands for this setting: other: CYP1A2, Pathway 1 Step 1.
[8] abbreviates: other: CYP1A2, Pathway 2 Step 2.1.

Sequence of CYP2E1 (P05181 whole entry): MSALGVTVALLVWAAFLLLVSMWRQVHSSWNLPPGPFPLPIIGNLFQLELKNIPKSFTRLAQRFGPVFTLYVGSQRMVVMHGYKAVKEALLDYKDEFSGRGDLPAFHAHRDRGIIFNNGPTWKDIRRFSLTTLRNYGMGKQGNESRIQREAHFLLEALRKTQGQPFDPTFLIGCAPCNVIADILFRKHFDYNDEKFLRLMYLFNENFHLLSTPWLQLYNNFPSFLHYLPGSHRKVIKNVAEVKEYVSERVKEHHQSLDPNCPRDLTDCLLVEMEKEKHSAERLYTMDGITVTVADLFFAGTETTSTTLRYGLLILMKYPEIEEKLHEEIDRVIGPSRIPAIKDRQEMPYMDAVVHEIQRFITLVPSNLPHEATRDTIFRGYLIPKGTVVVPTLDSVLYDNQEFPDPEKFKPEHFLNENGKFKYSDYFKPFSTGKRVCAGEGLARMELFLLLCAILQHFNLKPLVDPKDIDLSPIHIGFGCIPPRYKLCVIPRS

For `CN(C/C=C/C#CC(C)(C)C)Cc1cccc2ccccc12` [terbinafine], the “combined contribution of CYP2C9 and 3A4 to every metabolic step” value in the data set with CYP2C9 and 3A4 was “over 60%”. Besides, the “Hill slope (n), hydroxyterbinafine formation” value in the data set on CYP2C19 is recorded as 1.40 ± 0.11; in the data set on CYP3A4, 1.30 ± 0.16. Moreover, the figures for the “Hill slope (n), terbinafine dihydrodiol formation” value with CYP2C19 and with CYP3A4 were 0.58 ± 0.08 and 2.0 ± 0.32, respectively. Further, the “reported plasma terbinafine and metabolite levels” value in data set [1] was not above 3 µM. Besides, the “metabolite formation / role in terbinafine metabolism” value at CYP2A6 is recorded as “not able to generate metabolites; also recorded: no role”. Also, the “TBF-A formation (steady-state kinetic constants)” value at CYP2D6 is on record as “undetected”; at CYP2B6 (Pathway 1 Step 1, substrate terbinafine) it was “undetected”. Moreover, the Km – broadly, the concentration of substrate that gives half-maximal velocity – at 30 min on CYP2B6 (human, recombinant CYP2B6 Supersomes, pH 7.4, Km or S50, hydroxyterbinafine formation, substrate terbinafine) stood at 300 ± 100 µM. Also, the “hydroxyterbinafine formation (kinetic constants)” value at CYP2C8 and on CYP2C9 was “undetected” throughout. Besides, the “terbinafine dihydrodiol formation (kinetic constants)” value on CYP2C8 was “undetected”. The “role in terbinafine metabolism” value at CYP2E1 is on record as “no role”. The “risk of idiosyncratic liver toxicity, one in N patients” value in data set [2] is recorded as 45,000–54,000.

B1: CYP2D6 (Homo sapiens) (protein)
chain: MGLEALVPLAVIVAIFLLLVDLMHRRQRWAARYPPGPLPLPGLGNLLHVDFQNTPYCFDQLRRRFGDVFSLQLAWTPVVVLNGLAAVREALVTHGEDTADRPPVPITQILGFGPRSQGVFLARYGPAWREQRRFSVSTLRNLGLGKKSLEQWVTEEAACLCAAFANHSGRPFRPNGLLDKAVSNVIASLTCGRRFEYDDPRFLRLLDLAQEGLKEESGFLREVLNAVPVLLHIPALAGKVLRFQKAFLTQLDELLTEHRMTWDPAQPPRDLTEAFLAEMEKAKGNPESSFNDENLRIVVADLFSAGMVTTSTTLAWGLLLMILHPDVQRRVQQEIDDVIGQVRRPEMGDQAHMPYTTAVIHEVQRFGDIVPLGVTHMTSRDIEVQGFRIPKGTTLITNLSSVLKDEAVWEKPFRFHPEHFLDAQGHFVKPEAFLPFSAGRRACLGEPLARMELFLFFTSLLQHFSFSVPTGQPRPSHHGVFAFLVSPSPYELCAVPR
On to B1, for which the K0.5 in data set [3] is 16 ± 3.2 µM and 25 ± 4.1 µM.

B2: CYP2C9 (Homo sapiens) (protein)
chain: MDSLVVLVLCLSCLLLLSLWRQSSGRGKLPPGPTPLPVIGNILQIGIKDISKSLTNLSKVYGPVFTLYFGLKPIVVLHGYEAVKEALIDLGEEFSGRGIFPLAERANRGFGIVFSNGKKWKEIRRFSLMTLRNFGMGKRSIEDRVQEEARCLVEELRKTKASPCDPTFILGCAPCNVICSIIFHKRFDYKDQQFLNLMEKLNENIKILSSPWIQICNNFSPIIDYFPGTHNKLLKNVAFMKSYILEKVKEHQESMDMNNPQDFIDCFLMKMEKEKHNQPSEFTIESLENTAVDLFGAGTETTSTTLRYALLLLLKHPEVTAKVQEEIERVIGRNRSPCMQDRSHMPYTDAVVHEVQRYIDLLPTSLPHAVTCDIKFRNYLIPKGTTILISLTSVLHDNKEFPNPEMFDPHHFLDEGGNFKKSKYFMPFSAGKRICVGEALAGMELFLFLTSILQNFNLKSLVDPKNLDTTPVVNGFASVPPFYQLCFIPV
For the molecule B2, the kcat in data set [4] (other: CYP2C9, Pathway 1 Step 1) is on record as 800 ± 170 pmol/min/nmol protein; in data set [4] (setting [5]), 400 ± 19 pmol/min/nmol protein. Besides, the Km in data set [4] (setting [5]) is 20 ± 5.1 µM. For the same molecule, in [4] (other: CYP2C9, Hill equation), the K0.5 was determined as 72 ± 92 µM.

B3: CYP2C8 (Homo sapiens) (protein)
chain: MEPFVVLVLCLSFMLLFSLWRQSCRRRKLPPGPTPLPIIGNMLQIDVKDICKSFTNFSKVYGPVFTVYFGMNPIVVFHGYEAVKEALIDNGEEFSGRGNSPISQRITKGLGIISSNGKRWKEIRRFSLTTLRNFGMGKRSIEDRVQEEAHCLVEELRKTKASPCDPTFILGCAPCNVICSVVFQKRFDYKDQNFLTLMKRFNENFRILNSPWIQVCNNFPLLIDCFPGTHNKVLKNVALTRSYIREKVKEHQASLDVNNPRDFIDCFLIKMEQEKDNQKSEFNIENLVGTVADLFVAGTETTSTTLRYGLLLLLKHPEVTAKVQEEIDHVIGRHRSPCMQDRSHMPYTDAVVHEIQRYSDLVPTGVPHAVTTDTKFRNYLIPKGTTIMALLTSVLHDDKEFPNPNIFDPGHFLDKNGNFKKSDYFMPFSAGKRICAGEGLARMELFLFLTTILQNFNLKSVDDLKNLNTTAVTKGIVSLPPSYQICFIPV
In the case of B3, in data set [4] (setting [6]), the Michaelis constant (Km) was determined as 72 ± 12 µM and the kcat was found to be 260 ± 12 pmol/min/nmol protein.

B4: CYP1A2 (Homo sapiens) (protein)
chain: MALSQSVPFSATELLLASAIFCLVFWVLKGLRPRVPKGLKSPPEPWGWPLLGHVLTLGKNPHLALSRMSQRYGDVLQIRIGSTPVLVLSRLDTIRQALVRQGDDFKGRPDLYTSTLITDGQSLTFSTDSGPVWAARRRLAQNALNTFSIASDPASSSSCYLEEHVSKEAKALISRLQELMAGPGHFDPYNQVVVSVANVIGAMCFGQHFPESSDEMLSLVKNTHEFVETASSGNPLDFFPILRYLPNPALQRFKAFNQRFLWFLQKTVQEHYQDFDKNSVRDITGALFKHSKKGPRASGNLIPQEKIVNLVNDIFGAGFDTVTTAISWSLMYLVTKPEIQRKIQKELDTVIGRERRPRLSDRPQLPYLEAFILETFRHSSFLPFTIPHSTTRDTTLNGFYIPKKCCVFVNQWQVNHDPELWEDPSEFRPERFLTADGTAINKPLSEKMMLFGMGKRRCIGEVLAKWEIFLFLAILLQQLEFSVPPGVKVDLTPIYGLTMKHARCEHVQARLRFSIN
As for B4, the Km in data set [4] (setting [7]) is 75 ± 42 µM and 31 ± 17 µM; in data set [4] (setting [8]) it was 120 ± 23 µM. The kcat came to 100 ± 12 pmol/min/nmol protein in data set [4] (setting [7]) and 530 ± 38 pmol/min/nmol protein in data set [4] (setting [8]). In addition, the K0.5 stood at 130 ± 87 µM in [4] (other: CYP1A2, Hill equation) and 45 ± 5.7 µM in [4] (other: CYP1A2).
